The values below come from paper PMC12117180, “DNA‐Binding Properties of Non‐Intercalating Water‐Soluble Organometallic Ir(III) Luminophores” (Chemistry (Weinheim an Der Bergstrasse, Germany), 2025).

Data set [1] is described as follows: Solubility limits in buffer from saturated solutions. In kind it is physicochemical. The method, then: We next estimated the solubility limits of the complexes in buffer (25 mM MOPS, pH 7.0, 50 mM NaCl) from saturated solutions, using the molar absorption coefficients in Table S4 (see also Figures S14–18). […] These values mirror the trend predicted (via logP^[ [39] ^]) for the relative hydrophobicities of the cyclometalating ligands, which is ultimately controlled by the ligand substituent (H vs Me vs OMe vs Cl vs OCF3).

Data set [2] has as its system fish sperm DNA (FSDNA). The data set is described as follows: UV-visible titrations with fish sperm DNA, multiple independent binding sites (MIS) model. The following applies: 25 mM MOPS, 50 mM NaCl, pH 7.0, 25 °C; for K (apparent DNA-binding affinity): association constant. The method, then:
We then studied the interactions of the complexes with double‐stranded DNA using UV‐visible titrations. Briefly, solutions of 44.14, 31.52, 35.17, 37.55, and 29.62 µM for the five complexes [Ir(L1‐5)2(en)]Cl, respectively, were titrated (in duplicate) with fish sperm DNA (FSDNA) at 25 °C (Figure 7 and Figures S19–22). The interactions between these complexes and DNA turned out not to involve a single type of binding site (vide infra). Nevertheless, the data from the UV‐visible titrations were provisionally analyzed globally using the multiple independent binding sites (MIS) model to determine apparent binding affinities and apparent binding site sizes (Table 4).
All solutions were prepared by dissolving solids in a buffer with stirring, then filtration through a 0.22 µm PES filter to remove solid particles and ensure uniform, saturated solutions before titration. Concentrations were determined using extinction coefficients. MOPS buffer was prepared by dissolving MOPS (3‐(N‐morpholino)propanesulfonic acid, NaCl (all obtained from Fisher and used as supplied) in deionized water (Elga Purelab Flex), adjusting the pH to 7.0 using a NaOH solution (pH of the buffer was determined using a Hanna Instruments pH211 microprocessor pH meter with a Bioblock Scientific pH probe) and making up the solution to 0.5 liter. A stock solution of fish sperm DNA was prepared by dissolving approximately 0.1 g of fish sperm DNA in 10 mL of the buffer. The resulting solution was dialyzed (3.5 kDa MWCO, Visking, Medicell International Ltd) against 0.5 liters of buffer. Following dialysis, the DNA concentration was determined using UV‐visible spectroscopy using a molar absorption coefficient ε260 nm = 12 800 M^−1 cm^−1.^[ [37] ^] Spectra and titrations were plotted in OriginLab Origin 2019b. The titration data were analyzed globally for each complex using an in‐house written version of the multiple independent binding sites model which also explicitly takes changing ligand concentrations into account.^[ [49] ^]

The subject of data set [3] is FSDNA. The data set is described as follows: Isothermal titration calorimetry of DNA binding, two types of independent binding sites. Also on record: species or system fish. The note with it: 25 mM MOPS, 5 mM NaCl, pH 7.0, 25 °C; for K A1 / n A1: high-affinity site; for K B1 / n B1: low-affinity site. The method, then: Cooperative self‐aggregation of DNA binders in combination with DNA binding makes data analysis complex because of the presence of coupled equilibria.^[ [46] ^] In the case of aggregation of charged species, the aggregation process tends to be very sensitive to salt concentration. We therefore studied self‐aggregation in buffer at a lower salt concentration (25 mM MOPS, pH 7.0, 5 mM NaCl) and found no indications of self‐aggregation. We therefore opted to carry out the ITC experiments in a buffer with a reduced salt concentration of 5 mM. Titrations were carried out in two parts, viz. a first titration focussing on the first binding event followed by a second titration focussing on the second binding event (Figures S23–25 with complex and DNA concentrations for each individual titration in Table S5). Figures S23 and S25 clearly show two binding events, as anticipated from UV‐visible titrations.
We analyzed the data using a model involving two types of independent binding sites, correcting for dilution heat effects in our custom data analysis software I2CITC^[ [45], [47] ^] […] The complexes also bind to a second lower affinity type of binding site with a size of approximately 2–3 basepairs with an affinity K B1 of the order of 10^5 M^−1 in an exothermic process. Based on the combination of binding site size and the exothermic interaction, we attribute the low‐affinity binding event to non‐specific binding of the cationic complexes to negatively charged DNA, supported by hydrophobic interactions between complexes. The binding site size of the higher affinity binding site exceeds the dimensions of the complexes of around five base pairs, as estimated from the docking studies (vide supra). […] Intriguingly, the relatively low ΔH A1 is in line with groove binding.^[ [48] ^]
Buffers employed in the experiments were 50 mM NaCl and 25 mM MOPS (adjusted to pH 7 with NaOH) and 5 mM NaCl and 25 mM MOPS (adjusted to pH 7 with NaOH). Solutions of DNA were prepared by diluting the DNA stock solutions (see UV‐visible titrations) as required. Complex solutions were prepared by dissolving 5 mg of the complex in 5 mL of buffer, then filtered through a 0.22 µm PES filter to ensure uniform solutions for ITC titration. Concentrations of solutions of complexes and of DNA were determined using UV‐visible spectroscopy. Calorimetric titrations were carried out at 25 °C on a MicroCal PEAQ‐ITC microcalorimeter (Malvern Instruments Ltd., Worcestershire, UK). The instrument was operated by applying a reference power of 10 μcal/s in high‐feedback mode, stirring the sample cell contents at 750 rpm, with a pre‐injection initial delay of 60 s. Solutions of complexes were loaded into the calorimeter injection syringe and DNA solutions were loaded into the sample cell. All experiments involved an initial injection of 0.4 µL in 0.8 s followed by 18 further injections of 2.0 µL in 4.0 s per injection into the calorimeter sample cell. Injections were spaced by at least 90 s to allow full recovery of the baseline. Raw data were treated using MicroCal PEAQ‐ITC Analysis Software (1.41) to generate both integrated heat effects per injection (ΔQ) and molar heat effects per injection (ΔH). Further data analysis was carried out using I2CITC.^[ [45], [47] ^]
In general terms: In ITC the heat of successive injections is recorded.

In data set [4] the test system is FSDNA. The data set is described as follows: Steady-state and time-resolved luminescence in absence and presence of FSDNA. The following applies: for luminescence intensity enhancement following the addition of DNA: λex = 410 nm, 25 mM MOPS, pH 7.0, 50 mM NaCl, uncorrected for dilution; for increase (lifetime) on DNA binding: time-resolved luminescence, with vs without FSDNA. Also on record: species or system fish. The method, then: Finally, the influence of DNA binding on the luminescence properties of the complexes was investigated. Steady‐state fluorescence spectra (using λ ex = 410 nm) were recorded both in the absence and presence of FSDNA, using a buffer of 25 mM MOPS, pH 7.0, and 50 mM NaCl. First, the appearance and shape of the emission bands (Figure S26) were not influenced by binding to DNA; the position of the emission maxima and the peak shape were generally retained upon the addition of DNA. […] The time‐resolved luminescence measurements support the inhibition of excited state quenching processes leading to the observed increase in integrated intensity.
All reactions were performed with the use of a vacuum line and Schlenk techniques. Reagents were commercial grade and were used without further purification. ^1H, ^19F, and ^13C NMR spectra were recorded on a Bruker Avance dpx 500 MHz spectrometer and were recorded on d^6‐DMSO solutions. ^1H, ^13C{^1H} NMR chemical shifts (δ) were determined relative to internal tetramethylsilane, Si(CH3)4 and are given in ppm. Mass spectra were obtained by the staff at Cardiff University using a Waters Xevo G2‐XS QTof spectrometer. All photophysical data was obtained on a JobinYvon‐Horiba Fluorolog‐3 spectrometer fitted with a JY TBX picosecond photodetection module. The pulsed source was a Nano‐LED configured for 295 nm output operating at 1 MHz. Luminescence lifetime profiles were obtained using the JobinYvon–Horiba FluoroHub single photon counting module and the data fits yielded the lifetime values using DAS6 deconvolution software. IR spectra were recorded on an ATR‐equipped Shimadzu IRAffinity‐1 spectrophotometer. UV‐vis data were recorded as solutions on a Perkin Elmer Lamda20 spectrophotometer. The pH values of aqueous solutions were determined using a Hanna Instruments pH211 microprocessor pH meter with a Bioblock Scientific pH electrode.

The nature of data set [5]: ITC dilution experiments (self-aggregation). In kind it is physicochemical. The text has this:
To explore whether multiple binding modes are indeed present for these complexes interacting with DNA, we turned to isothermal titration calorimetry (ITC). ITC typically involves titrating a relatively concentrated solution of the binder into a more dilute solution of DNA (instead of titrating a relatively concentrated DNA solution into a more dilute solution of the binder). Therefore, the possible self‐aggregation of the DNA binders was explored through dilution experiments in which solutions of a complex at representative concentrations in buffer (25 mM MOPS, pH 7.0, 50 mM NaCl) were diluted into matched buffer in the calorimeter cell.
Further experiments at different complex concentrations confirm this sigmoidal behavior of the dilution heat effects around a critical concentration. […] Nevertheless, self‐assembled nanoparticles of organic fluorophores with micromolar CACs have been reported.^[ [43] ^]
CACs are typical for cooperative aggregation processes, such as micellization, and we therefore interpret the data as [Ir(L1)2(en)]Cl cooperatively self‐aggregating in these buffer conditions (25 mM MOPS, pH 7.0, 50 mM NaCl). While it is known that the determination of aggregation numbers from titration calorimetry data is challenging, other thermodynamic parameters are readily available. […] The molar enthalpy for self‐aggregation of −92 kJ mol^−1 (difference between average pre‐ and post‐CAC heat effects) indicates a highly exothermic self‐aggregation process accompanied by a T×Δ°S aggregation of […]. […]
Buffers employed in the experiments were 50 mM NaCl and 25 mM MOPS (adjusted to pH 7 with NaOH) and 5 mM NaCl and 25 mM MOPS (adjusted to pH 7 with NaOH). […] Concentrations of solutions of complexes and of DNA were determined using UV‐visible spectroscopy. […]

The mark [6] stands for this setting: buffer 25 mM MOPS, pH 7.0, 50 mM NaCl, saturated solutions, estimated via molar absorption coefficients.

Consider `COc1c[c-]c(-c2nc3ccccc3s2)cc1.COc1c[c-]c(-c2nc3ccccc3s2)cc1.NCCN.[Cl-].[Ir+3]` [[Ir(L3)2(en)]Cl], for which the Solubility limit in data set [1] (setting [6]) was 739 µM. For the same compound, in data set [2], the “binding site size (apparent)” value worked out at 0.76 ± 0.04 base pairs and the “K (apparent DNA-binding affinity)” value is reported as 4.6 ± 2.3 10^5 M^−1. Also, in data set [3], the “K A1” value is reported as 19 10^6 M^−1, the “n A1” value was 0.07 bp^−1, the “K B1” value is 0.13 10^6 M^−1 and the “n B1” value is 0.31. Further, the “luminescence intensity enhancement following the addition of DNA” value in data set [4] is 40–65%.
As for `Cc1c[c-]c(-c2nc3ccccc3s2)cc1.Cc1c[c-]c(-c2nc3ccccc3s2)cc1.NCCN.[Cl-].[Ir+3]` [[Ir(L2)2(en)]Cl], in data set [1] (setting [6]), the Solubility limit is on record as 327 µM. In addition, in data set [2], the “binding site size (apparent)” value came out at 0.64 ± 0.05 base pairs and the “K (apparent DNA-binding affinity)” value is given as 4.2 ± 3.7 10^5 M^−1. In data set [3], the “K A1” value is on record as 132 10^6 M^−1, the “n A1” value is recorded as 0.03 bp^−1, the “K B1” value was 0.41 10^6 M^−1 and the “n B1” value worked out at 0.57.
For `Clc1c[c-]c(-c2nc3ccccc3s2)cc1.Clc1c[c-]c(-c2nc3ccccc3s2)cc1.NCCN.[Cl-].[Ir+3]` [[Ir(L4)2(en)]Cl], in data set [1] (setting [6]), the Solubility limit is on record as 100 µM. In data set [2], the “binding site size (apparent)” value was 0.43 ± 0.19 base pairs and the “K (apparent DNA-binding affinity)” value is reported as 0.8 ± 0.7 10^5 M^−1. Further, the “increase (lifetime) on DNA binding” value in data set [4] was 75%.
As for `FC(F)(F)Oc1c[c-]c(-c2nc3ccccc3s2)cc1.FC(F)(F)Oc1c[c-]c(-c2nc3ccccc3s2)cc1.NCCN.[Cl-].[Ir+3]` [[Ir(L5)2(en)]Cl], in data set [1] (setting [6]), the Solubility limit is recorded as 75 µM. For the same compound, in data set [2], the “binding site size (apparent)” value is 0.92 ± 0.18 base pairs and the “K (apparent DNA-binding affinity)” value was 0.6 ± 0.3 10^5 M^−1. In addition, in data set [4], the “increase (lifetime) on DNA binding” value is recorded as 98% and the “luminescence intensity enhancement following the addition of DNA” value is listed as 40–65%.
Consider `NCCN.[Cl-].[Ir+3].[c-]1ccccc1-c1nc2ccccc2s1.[c-]1ccccc1-c1nc2ccccc2s1` [[Ir(L1)2(en)]Cl], for which the Solubility limit in data set [1] (pH 7) turned out to be 978 µM. Also, in data set [2], the “binding site size (apparent)” value came out at 0.70 ± 0.15 base pairs and the “K (apparent DNA-binding affinity)” value is listed as 4.3 ± 5.3 10^5 M^−1. Also, in data set [3], the “K A1” value was 239 10^6 M^−1, the “n A1” value is reported as 0.06 bp^−1, the “K B1” value is on record as 0.14 10^6 M^−1 and the “n B1” value is recorded as 0.46. Further, the “critical aggregation concentration (CAC)” value in data set [5] (25 mM MOPS, pH 7.0, 50 mM NaCl, 25 °C) stood at 2.1 µM. For the same compound, the “molar enthalpy for self‐aggregation” value in data set [5] (difference between average pre‐ and post‐CAC heat effects) was -92 kJ/mol. In addition, in data set [5] (from CAC, 25 mM MOPS, pH 7.0, 50 mM NaCl), the “equilibrium constant for aggregation” value amounted to 480000 M⁻¹.
